The values that follow come from patent publication US7220580B2, “Sphingosine 1-phosphate receptor gene, sppr” (University of South Florida, priority 2000, dated 2007).

One assay addresses T1, S1P5 (Homo sapiens, UniProt Q9H228).
T1 construct: The largest PCR product contains a complete open reading frame; expressed in transfected cells; host or cells: HEK293
Kind of assay: Erk2 kinase assay in HEK293 cells transiently transfected with S1P5. It is filed as cell-based. Conditions: HEK293 cells transiently transfected with S1P5 and HA-Erk2, 1 μM ligand for 5 min, MBP as substrate. As to the method: Vector plasmid is added to each transfection reaction to equalize the amount of total DNA (2.1 μg). […] HA-ERK2 is immunoprecipitated from one half of each whole cell lysate and used for measuring the kinase activity utilizing MBP as substrate, while HA-ERK2 immunoprecipitated from the other half is used for determining the amount of ERK2 protein in the immune complex. FIG. 10 illustrates a representative autoradiogram of ^32P incorporation into MBP catalyzed by HA-ERK 2 immunoprecipitated from transiently transfected cells treated as indicated. […] Cell Culture and Transfection. HEK293 cells are grown in Dulbecco's modified eagle's medium supplemented with 10% fetal bovine serum. The cells are transiently transfected with a plasmid encoding HA-tagged Erk2 (HA-Erk2) and either pcDNA 3 S1P5 or pcDNA 3.1. Transfection is achieved by incubating the cells in 60 mm plates with plasmid/Lipofectamine complexes (2.1 μg total DNA/12 μl Lipofectamine) in serum-free medium for 5 hours. The DNA complexes are removed from the medium and the cells are starved overnight in serum-free medium and then used for experimentation. Erk2 Kinase Assay. […] The cells are lysed in buffer containing 50 mM Tris-HC1 pH 7.5, 150 mM NaCl, 1 mM EDTA, 1 mM EGTA, 1 mM DTT, 1% Triton X-100, 25 mM NaF, 5 mM sodium pyrophosphate, 20 mM ρ-nitrophenyl phosphate, 2 μg/mL leupeptin, and 100 μg/mL phenylmethylsulfonyl fluoride. HA-Erk2 is immunoprecipitated with the monoclonal antibody HA.11 (Convance, Richmond, Calif.). […] The reaction is terminated with SDS-containing gel-loading buffer and the reaction mixtures are analyzed on 11% SDS-polyacrylamide gels. The gels are processed by autoradiography. The bands on the gels are quantitated with a PhosphorImager. Erk2 protein in the immunoprecipitate is determined by immunoblotting with a polyclonal antibody to Erk2.

Assay [1] has as its target T2, EDG-8 (Rattus norvegicus, UniProt Q9JKM5).
T2 construct: host or cells: CHO cells
Conditions: CHO cells expressing EDG-8; cited from earlier work.

Assay [2] has as its target T2, EDG-8. Particulars: CHO cells expressing EDG-8; cited from earlier work. This is another data set of the same source.

T1 sequence (Q9H228 whole entry): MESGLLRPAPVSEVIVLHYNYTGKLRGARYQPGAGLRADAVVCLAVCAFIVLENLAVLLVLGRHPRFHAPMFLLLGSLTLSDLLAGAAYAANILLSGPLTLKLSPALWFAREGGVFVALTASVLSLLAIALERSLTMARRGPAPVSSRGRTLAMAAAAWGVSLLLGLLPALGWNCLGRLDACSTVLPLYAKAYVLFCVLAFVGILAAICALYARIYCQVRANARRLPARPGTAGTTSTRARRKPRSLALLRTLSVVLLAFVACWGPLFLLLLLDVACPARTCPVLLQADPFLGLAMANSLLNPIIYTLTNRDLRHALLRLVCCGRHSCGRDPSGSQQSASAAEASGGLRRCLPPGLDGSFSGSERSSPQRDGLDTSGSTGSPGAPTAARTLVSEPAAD
T2 sequence (Q9JKM5 whole entry): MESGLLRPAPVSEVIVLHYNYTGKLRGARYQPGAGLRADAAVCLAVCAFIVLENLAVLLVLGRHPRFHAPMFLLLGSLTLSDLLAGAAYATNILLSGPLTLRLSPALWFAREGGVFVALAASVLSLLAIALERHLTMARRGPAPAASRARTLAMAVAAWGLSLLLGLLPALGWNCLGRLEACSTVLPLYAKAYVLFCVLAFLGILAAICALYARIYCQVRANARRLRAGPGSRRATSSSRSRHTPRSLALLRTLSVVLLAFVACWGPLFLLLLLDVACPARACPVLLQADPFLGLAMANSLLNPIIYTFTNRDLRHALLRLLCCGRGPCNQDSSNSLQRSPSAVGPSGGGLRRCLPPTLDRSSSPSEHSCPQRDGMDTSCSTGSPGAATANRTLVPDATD

For the compound `CCCCCCCCCCCCC/C=C/[C@@H](O)[C@@H](N)COP(=O)(O)O` [S1P, sphingosine-1-phosphate], the “activation of Erk2 activity” value at S1P5 was “activates Erk2”; at S1P5 (listed as sphingosine-1-phosphate) it was “activation of Erk2 activity”. In addition, the “serum-induced activation of Erk1/2” value on EDG-8 [1] was “inhibited”. Moreover, the cell proliferation entry at EDG-8 [2] is reported as “inhibits the cell proliferation”.
For lysophosphatidic acid [LPA], the “activation of Erk2 activity” value was “not” on S1P5 and “does not” at S1P5 (listed as lysophosphatidic acid).
